# pIC50: −log10 of the molar value. Calls of active or inactive are those of the source.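 How the source made its calls: active means blocks the choline transporter at some tested dose and yields a fitted dose response curve; inconclusive means no clear call, values can overlap the other calls; inactive means no blocking at any dose or no curve.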
# Target: High affinity choline transporter 1 (Homo sapiens) (UniProt Q9GZV3)
# Assay: CHT inhibitors, dose response, cell-based, 10-point CRC, membrane potential dye (AID 588401)
# Conditions: HEK293-CHT, choline-induced depolarization, at 25 µM (top of the series), cells express LV-AA mutant CHT
# High affinity choline transporter 1 (Homo sapiens), sequence (Q9GZV3 whole entry, looked up): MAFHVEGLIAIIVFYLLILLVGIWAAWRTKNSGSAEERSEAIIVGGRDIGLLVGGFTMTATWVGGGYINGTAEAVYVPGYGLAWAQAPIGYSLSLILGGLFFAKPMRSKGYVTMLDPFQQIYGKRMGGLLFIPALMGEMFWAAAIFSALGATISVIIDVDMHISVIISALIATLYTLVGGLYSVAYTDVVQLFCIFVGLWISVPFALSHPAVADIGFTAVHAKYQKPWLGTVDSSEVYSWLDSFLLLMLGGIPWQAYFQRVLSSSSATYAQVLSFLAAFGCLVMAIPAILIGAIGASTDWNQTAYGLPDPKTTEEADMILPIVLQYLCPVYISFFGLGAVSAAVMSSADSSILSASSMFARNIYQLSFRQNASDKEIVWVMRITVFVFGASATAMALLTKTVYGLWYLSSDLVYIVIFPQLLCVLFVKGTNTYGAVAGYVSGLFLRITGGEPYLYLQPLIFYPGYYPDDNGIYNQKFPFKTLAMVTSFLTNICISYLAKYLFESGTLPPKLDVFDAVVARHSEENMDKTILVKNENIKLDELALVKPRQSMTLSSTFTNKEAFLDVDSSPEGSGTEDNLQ
row,Structure (SMILES),inhibition (negative values = inhibition)
1,CCc1cc2c(N3CCN(c4nnc(CC)s4)CC3)ncnc2s1,inactive
2,CC1(C(=O)N2CCC(CC3CC(c4ccc(Cl)cc4)=NO3)(C(=O)NCC3CCCCC3)CC2)CC1 (configuration not stated),inactive
3,CCN1CCN(CCNC(=O)c2ccc3nc(-c4cccc(C)c4)c(-c4cccc(C)c4)nc3c2)CC1,inactive
4,CC1CCCCC1NC(=O)c1c(O)nc2ccccn2c1=O (configuration not stated),inactive
5,CCCNc1nc2c(c(=O)n(C)c(=O)n2C)n1CCC(C)C,inactive
6,CCCc1cc(NCC2CCCO2)n2c(nc3ccccc32)c1C#N (configuration not stated),inactive
7,O=C1NC(c2ccccc2)=C(c2ccc3ccccc3n2)C(c2ccncc2)N1 (configuration not stated),inactive
8,O=C(c1ccc(Cl)c(S(=O)(=O)N2CCCC2)c1)N1CCN(c2ccccc2)CC1,inactive
9,COc1cc(/C=C2/C(=O)ON=C2c2ccccc2)ccc1O,inactive
10,Cc1nn2c(N3CCN(C)CC3)c3c(nc2c1-c1ccccc1)CCCC3,inactive
11,O=S(=O)(c1ccc(N2CCCC2)nc1)N1CCCC1,inactive
12,CC1CCCCC1NC(=S)Nc1ccc(SC(F)F)cc1 (configuration not stated),inactive
13,COc1cccc(/C=C2\SC(=S)N(NS(=O)(=O)c3ccccc3)C2=O)c1OC,inactive
14,CC(/C=C1\SC(=S)N(NS(=O)(=O)c2ccccc2)C1=O)=C\c1ccccc1,inactive
15,COc1ccc(-n2c(=S)[nH]c3cc(C(=O)NCCCN4CCOCC4)ccc3c2=O)cc1,inactive
16,O=C(c1c(O)c2ccccc2oc1=O)C1CCCCC1,inactive
17,CC#CCN(CC#CC)S(=O)(=O)c1ccc(-n2cnnn2)c(OC)c1,inactive
18,CCS(=O)(=O)C1=NN2C(=N)/C(=C\c3ccc(OS(=O)(=O)c4ccccc4)cc3)C(=O)N=C2S1,inactive
19,COc1ccc(-c2csc(Cc3nnc4n3CCCCC4)n2)cc1,inactive

row,Structure (SMILES),inhibition (negative values = inhibition)
1,O=C(C1CCCN(c2ncnc3c2nc2n3CCCCC2)C1)N1CCN(c2ccc(Cl)cc2)CC1 (configuration not stated),inactive
2,COc1ccc(C(=O)NC(Cc2ccc(OC(=O)c3ccc(OC)cc3)cc2)C(=O)O)cc1 (configuration not stated),inactive
3,CCCCc1cc(O)c(CCCC)c(O)c1,inactive
4,CC(C)Nc1nc(Cl)nc(N(C#N)CN2C(=O)c3ccccc3C2=O)n1,inactive
5,CN(Cc1cccs1)c1ncnc2sccc12,inactive
6,CCCc1ccc(OCc2ccc(C(=O)NCc3cccnc3)o2)c(OC)c1,inactive
7,Cc1cc(CN(C)C(=O)c2cc(COc3ccc(F)cc3Cl)on2)n[nH]1,inactive
8,C=CCSc1nc2ccccc2n1Cc1nnc(-c2cccs2)o1,inactive
9,Cc1ccccc1CCNCc1cc2cccc(C)c2[nH]c1=O,inactive
10,COc1cc(/C=C2\S/C(=N/S(=O)(=O)Cc3ccccc3)NC2=O)c([N+](=O)[O-])cc1OC,inactive
11,O=[N+]([O-])c1cc(Cc2ccccc2)cc(C=Nc2ccc(N3CCOCC3)cc2)c1O,inactive
12,Cc1cccc(OCC(O)Cn2c(=N)n(Cc3ccccc3)c3ccccc32)c1 (configuration not stated),inactive
13,Oc1ccc(C[C@H]2NCCc3cc(O)c(O)cc32)cc1O,inactive
14,N=c1n(Cc2ccccc2)c2ccccc2n1CC(O)COc1ccccc1 (configuration not stated),inactive
15,CC1(C)CC2CC(C)(CN2c2ncnc3ccccc23)C1 (configuration not stated),inactive
16,O=C(CSc1nnc(-c2ccco2)n1Cc1ccco1)NCc1cccs1,inactive
17,Cc1ccc(C(=O)NC2CCCC(C)C2C)cc1S(=O)(=O)N1CCCCC1 (configuration not stated),inactive
18,COC(=O)/C(=C/c1c[nH]c2ccccc12)[N+](=O)[O-],inactive

# More lines, now with the values ahead:
row,inhibition (negative values = inhibition),Structure (SMILES)
1,inactive,O=C(N/N=C/c1ccsc1)c1c[nH]c2ccccc12
2,inactive,Cc1c(C(=O)OC(C)C)sc(NC(=O)c2cccnc2)c1C#N
3,inactive,CCN(Cc1ccccc1)S(=O)(=O)c1cc(C(=O)NC2CCCCCC2)ccc1OC
4,inactive,CC(/C=N/NC(=O)c1cc(-c2ccncc2)nc2ccccc12)=C\c1ccco1
5,inactive,CC(C)C(=O)Nc1cccc(NC(=O)c2ccc(Cl)cc2Cl)c1
6,inactive,CCN(CC(=O)Nc1cccc(OC)c1)c1ncnc2sc(C)c(C)c12
7,inactive,CC(Oc1ccccc1Cl)C(=O)Nc1ccc(S(=O)(=O)Nc2nccs2)cc1 (configuration not stated)
8,inactive,O=C(Nc1ccn(Cc2ccccc2)n1)c1n[nH]c([N+](=O)[O-])c1Cl
9,inactive,Cc1ccc(C)c(OCC(=O)Nc2ccc(S(=O)(=O)Nc3ccccn3)cc2)c1C
10,inactive,Oc1cccc(C(O)CNCc2ccc(OCc3ccc(Cl)cc3Cl)cc2)c1 (configuration not stated)
11,inactive,CC(SCc1ccccc1)C(=O)N/N=C/c1ccc(OCC(=O)NCc2ccco2)cc1 (configuration not stated)
12,inactive,CCOC(=O)c1nc(NNC(=O)c2ccc([N+](=O)[O-])cc2)sc1C
13,inactive,O=C(CSc1nc2ccccc2[nH]1)c1ccc2c(c1)OCO2
14,inactive,CCOC(=O)c1cccc(NC(=O)CSc2nnc(C)n2Cc2ccccc2)c1
15,inactive,Cc1ccc(S(=O)(=O)N2[C@@H](c3ccc(Cl)cc3)C(C(=O)O)=CC[C@H]2c2ccc(Cl)c(Cl)c2)cc1
16,inactive,CCCOc1ccc(C(CC(=O)O)NC(=O)c2sc3ccccc3c2Cl)cc1 (configuration not stated)
17,inactive,C/C(=N\NS(=O)(=O)c1ccc(Cl)c([N+](=O)[O-])c1)c1cc2ccccc2o1
18,inactive,Cc1cccc(C(=O)Nc2cccc(OCC(=O)O)c2)c1
19,inactive,Cc1ccc(S(=O)(=O)N2[C@@H](c3ccc(Cl)cc3)C(C(=O)O)=CC[C@H]2c2ccc(Cl)cc2)cc1
20,inactive,Cc1cc(Cl)ccc1OCCCC(=O)N1CCN(C(=O)c2ccco2)CC1
21,inactive,CC1(C)CC(=O)C=C(Nc2cccc(Cl)c2Cl)C1
22,inactive,O=c1c2cc(Br)ccc2nc(-c2ccc(Cl)cc2)n1O
23,inactive,CCOC(=O)Cc1csc(NS(=O)(=O)c2ccc3c4c(cccc24)C(=O)N3CC)n1
24,inactive,C[C@H](NC(=O)OC(C)(C)C)c1nnc(SCC(=O)c2ccc(Cl)cc2)o1

# Same assay, conditions: HEK293-CHT, choline-induced depolarization, cells express LV-AA mutant CHT
row,Structure (SMILES),pIC50
1,Cc1ccc(NC(=O)c2ccc(CN3CC(=O)N4CCCCC4C3=O)cc2)c(C)c1 (configuration not stated),5.35
